Test results as given in the supplement of paper PMC11061612.

What was measured:
Assay in all cases: Bliss excess, mean over the matrix (fraction); higher = more synergy
[1] = system: KU-19-19 (Bladder Carcinoma)
Summary of the method: (§1)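 After 24 hours at 37°C and 5% CO2 in 1536-well plates, cells in DMEM/F12 or RPMI plus 10% FBS received two-drug dose matrices for 72 hours. Viability came from CellTiter-Glo 2.0 luminescence and was scaled as inhibition, anchored at 0 by vehicle wells and at 1 by blank wells. Combination Emax is taken as the second-highest inhibition in the matrix, and Bliss excess as the observed combination effect less EA + EB − EA·EB, with EA and EB the single-agent effects.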

EW-3 (Ewing's Sarcoma) = system: EW-3 (Ewing's Sarcoma)
Summary of the method: as §1

EW-13 (Ewing's Sarcoma) = system: EW-13 (Ewing's Sarcoma)
Summary of the method: as §1

IMR-5 (Neuroblastoma) = system: IMR-5 (Neuroblastoma)
Summary of the method: as §1

A704 (Kidney Carcinoma) = system: A704 (Kidney Carcinoma)
Summary of the method: as §1

[2] = system: SCC-9 (Oral Cavity Carcinoma)
Summary of the method: as §1

[3] = system: KP-2 (Pancreatic Carcinoma)
Summary of the method: as §1

[4] = system: NCI-H1573 (Lung Adenocarcinoma)
Summary of the method: as §1

[5] = system: HC-1 (Other Blood Carcinomas)
Summary of the method: as §1

[6] = system: DG-75 (Burkitt's Lymphoma)
Summary of the method: as §1

[7] = system: OCUB-M (Breast Carcinoma)
Summary of the method: as §1

[8] = system: VMRC-LCD (Lung Adenocarcinoma)
Summary of the method: as §1

[9] = system: NCI-H2405 (Lung Adenocarcinoma)
Summary of the method: as §1

GOTO (Neuroblastoma) = system: GOTO (Neuroblastoma)
Summary of the method: as §1

Row | SMILES | Bliss excess [1] | Bliss excess (EW-3 (Ewing's Sarcoma)) | Bliss excess (EW-13 (Ewing's Sarcoma)) | Bliss excess (IMR-5 (Neuroblastoma)) | Bliss excess (A704 (Kidney Carcinoma)) | Bliss excess [2] | Bliss excess [3] | Bliss excess [4] | Bliss excess [5] | Bliss excess [6] | Bliss excess [7] | Bliss excess [8] | Bliss excess [9] | Bliss excess (GOTO (Neuroblastoma))
1 | Cc1cc2ncnn2cc1Nc1ncc2c(n1)n(C1CCOCC1)c(=O)n2C [AZD7648] + CN(C)CCCOc1ccc(-c2ccc3ncc4c(c3c2)n(C2CCOCC2)c(=O)n4C)cn1 [AZD0156] (first compound max 10 µM, 7x7, partner max 1 µM) | 0.0009 | -0.0281 | -0.0385 | 0.009 | -0.0152 | -0.0144 | -0.0182 | -0.0085 | -0.0398 | 0.0226 | -0.0055 | 0.0122 | -0.0074 | -0.0264
2 | CN(CCO)CC[C@H](CSc1ccccc1)Nc1ccc(S(=O)(=O)NC(=O)c2ccc(N3CCC([C@@H](O)c4ccccc4-c4ccc(Cl)cc4)CC3)cc2)cc1S(=O)(=O)C(F)(F)F [AZD4320] + C[C@@H]1COCCN1C2=NC(=NC(=C2)C3(CC3)[S@](=N)(=O)C)C4=C5C=CNC5=NC=C4 [AZD6738] (first compound max 1 µM, 7x7, partner max 10 µM) | -0.0381 | -0.0236 | -0.0009 | 0.102 | -0.0084 | -0.0587 | -0.104 | -0.0524 | 0.0127 | -0.0217 | 0.0055 | -0.0764 | -0.0448 | -0.0126
3 | COc1nnc2ccc(N3CCC(c4ccc(OCCN5CCN(C)C(=O)[C@H]5C)cc4)CC3)nn12 [AZD5153] + C[C@@H]1COCCN1C2=NC(=NC(=C2)C3(CC3)[S@](=N)(=O)C)C4=C5C=CNC5=NC=C4 [AZD6738] (first compound max 1 µM, 7x7, partner max 10 µM) | -0.0645 | -0.0647 | 0.0682 | 0.0121 | -0.0278 | 0.0394 | 0.0565 | 0.0531 | -0.0468 | -0.0203 | 0.0415 | 0.0235 | 0.0638 | -0.0422
4 | CN(CCO)CC[C@H](CSc1ccccc1)Nc1ccc(S(=O)(=O)NC(=O)c2ccc(N3CCC([C@@H](O)c4ccccc4-c4ccc(Cl)cc4)CC3)cc2)cc1S(=O)(=O)C(F)(F)F [AZD4320] + CN(C)CCCOc1ccc(-c2ccc3ncc4c(c3c2)n(C2CCOCC2)c(=O)n4C)cn1 [AZD0156] (first compound max 1 µM, 7x7, partner max 1 µM) | -0.0364 | 0.0012 | -0.0303 | 0.0284 | -0.0411 | -0.0423 | -0.0444 | -0.0255 | -0.0813 | -0.0183 | 0.0044 | -0.0542 | -0.0378 | -0.0041
5 | CN(CCO)CC[C@H](CSc1ccccc1)Nc1ccc(S(=O)(=O)NC(=O)c2ccc(N3CCC([C@@H](O)c4ccccc4-c4ccc(Cl)cc4)CC3)cc2)cc1S(=O)(=O)C(F)(F)F [AZD4320] + C1CN(CCC1(C(=O)N[C@@H](CCO)C2=CC=C(C=C2)Cl)N)C3=NC=NC4=C3C=CN4 [Capivasertib] (first compound max 1 µM, 7x7, partner max 3 µM) | -0.0394 | -0.0687 | -0.0633 | 0.154 | -0.1 | -0.0761 | -0.0583 | 0.0699 | -0.0058 | -0.0093 | -0.0174 | -0.0521 | -0.0513 | -0.034
6 | COc1nnc2ccc(N3CCC(c4ccc(OCCN5CCN(C)C(=O)[C@H]5C)cc4)CC3)nn12 [AZD5153] + CCN(CCO)CCCOc1ccc2c(Nc3cc(CC(=O)Nc4cccc(F)c4)[nH]n3)ncnc2c1 [AZD2811] (first compound max 1 µM, 7x7, partner max 1 µM) | -0.0741 | -0.115 | 0.0251 | -0.0151 | 0.0278 | -0.0476 | -0.0065 | -0.0621 | -0.0099 | 0.0144 | -0.133 | 0.0435 | -0.0102 | -0.0561
7 | CCN(CCO)CCCOc1ccc2c(Nc3cc(CC(=O)Nc4cccc(F)c4)[nH]n3)ncnc2c1 [AZD2811] + C=CCn1c(=O)c2cnc(Nc3ccc(N4CCN(C)CC4)cc3)nc2n1-c1cccc(C(C)(C)O)n1 [AZD1775] (first compound max 1 µM, partner max 1 µM) | -0.014 | 0.0844 | 0.0393 | -0.0064 | -0.0547 | -0.0179 | -0.001 | -0.0457 | 0.0697 | 0.086 | 0.0312 | 0.0049 | -0.021 | -0.0162
